Reference: patent US7741311B2, “Composition and method for treating occlusive vascular diseases, nerve regeneration, and wound healing” (priority 2005, dated 2010)

Key:
[1] = system: human dermal micro-vascular endothelial cells (HDMEC); test: three-dimensional in vitro sprout angiogenesis assay (endothelial cells on gelatin-coated beads in fibrin gel); format: cell-based; settings: Ch 2 (10 μg); sub-threshold levels of VEGF and b-FGF; P<0.01
Method: The effect of low molecular weight sulfated saccharides (molecular weight<5000 Dalton) on micro-vascular endothelial cell sprouting (in Vitro 3D Sprout Angiogenesis) is depicted with respect to culture of HDMEC on micro-carrier beads in FIG. 19. 80% confluent HDMEC (Passage 5-10) are mixed with gelatin-coated Cytodex-3 beads with a ratio of 40 cells per bead. If using 24-well plate for the assay, 150-200 beads per well are used. Cells and beads are suspended with 5 ml EBM+15% normal human serum, mixed gently every one hour for first four hours. Then the mixture culture is left in CO2 incubator overnight. The next morning, 10 ml of fresh EBM+15% HS and culture are added for another three hours. Before experiments, the culture of EC-beads is checked. 500 ul of PBS in a well of 24-well plate is added. 100 ul of the EC-bead culture solution is added to the PBS. The number of beads are observed and counted. The concentration of EC-beads is calculated. […]
Culture of HDMEC on micro-carrier beads: 80% confluent HDMEC (Passage 5-10) were mixed with gelatin-coated Cytodex-3 beads with a ratio of 40 cells per bead. […] The number of beads is counted and the concentration of EC-beads is calculated. […]
Growth factors: VEGF (30 ng/ml)+FGF2 (25 ng/ml) CH2: Sulfated Hexasaccharide at 10 ug/ml. […] A quantitative three-dimensional in vitro assay method was utilized to screen compounds for angiogenic activity. […]

[2] = system: chick chorioallantoic membrane (CAM); test: neovascularization in the chick chorioallantoic membrane (CAM) model; format: in vivo; settings: n = 8
Method: In vivo neovascularization was examined by the method previously described by Auerbach et al. (Auerbach et al., J. Dev. Biol., 41:391-394 (1974), which is hereby incorporated by reference in its entirety). Ten-day old embryos were purchased from Spafas, Inc. (Preston, Conn.) and were incubated at 37° C. with 55% relative humidity. In the dark with the help of a candling lamp, a small hole was punctured in the shell concealing the air sac with a hypodermic needle. A second hole was punctured in the shell on the broadside of the egg directly over an avascular portion of the embryonic membrane, as observed during candling. […]
(§1) CAM tissue directly beneath FGF2-saturated filter disk was resected from embryos treated 48 hours prior with test compound or control. […] Digital images of CAM sections adjacent to filters were collected using a 3-CCD color video camera system (Toshiba America, New York, N.Y.) and analyzed using Image-Pro Plus software (Media Cybernetics, Silver Spring, Md.).
as §1, with “48 h” for “48 hours”, “with” for “with test”, “analyzed with the” for “analyzed using”

Structure (SMILES): COc1cccc(-c2cc(=O)c3ccccc3o2)c1N [PD9805]
- blockade of angiogenesis promoted by Ch 2 [1]: blocked
- Mean % Inhibition ± SEM ([2]; inhibition of Ch 2 (10 μg) pro-angiogenesis by inhibitor 4.8 μg, P < 0.01): 71 ± 6 %
- Mean Branch Points ± SEM ([2]; inhibitor 4.8 μg added to PBS + Ch 2 (10 μg)): 95 ± 8
